The assay addresses T1, USP25 (USP25-His6, Boston Biochem E-546) (Homo sapiens, UniProt Q9UHP3).
T1 construct: His6; purchased Boston Biochem E-546
T1 sequence (Q9UHP3 1-1055): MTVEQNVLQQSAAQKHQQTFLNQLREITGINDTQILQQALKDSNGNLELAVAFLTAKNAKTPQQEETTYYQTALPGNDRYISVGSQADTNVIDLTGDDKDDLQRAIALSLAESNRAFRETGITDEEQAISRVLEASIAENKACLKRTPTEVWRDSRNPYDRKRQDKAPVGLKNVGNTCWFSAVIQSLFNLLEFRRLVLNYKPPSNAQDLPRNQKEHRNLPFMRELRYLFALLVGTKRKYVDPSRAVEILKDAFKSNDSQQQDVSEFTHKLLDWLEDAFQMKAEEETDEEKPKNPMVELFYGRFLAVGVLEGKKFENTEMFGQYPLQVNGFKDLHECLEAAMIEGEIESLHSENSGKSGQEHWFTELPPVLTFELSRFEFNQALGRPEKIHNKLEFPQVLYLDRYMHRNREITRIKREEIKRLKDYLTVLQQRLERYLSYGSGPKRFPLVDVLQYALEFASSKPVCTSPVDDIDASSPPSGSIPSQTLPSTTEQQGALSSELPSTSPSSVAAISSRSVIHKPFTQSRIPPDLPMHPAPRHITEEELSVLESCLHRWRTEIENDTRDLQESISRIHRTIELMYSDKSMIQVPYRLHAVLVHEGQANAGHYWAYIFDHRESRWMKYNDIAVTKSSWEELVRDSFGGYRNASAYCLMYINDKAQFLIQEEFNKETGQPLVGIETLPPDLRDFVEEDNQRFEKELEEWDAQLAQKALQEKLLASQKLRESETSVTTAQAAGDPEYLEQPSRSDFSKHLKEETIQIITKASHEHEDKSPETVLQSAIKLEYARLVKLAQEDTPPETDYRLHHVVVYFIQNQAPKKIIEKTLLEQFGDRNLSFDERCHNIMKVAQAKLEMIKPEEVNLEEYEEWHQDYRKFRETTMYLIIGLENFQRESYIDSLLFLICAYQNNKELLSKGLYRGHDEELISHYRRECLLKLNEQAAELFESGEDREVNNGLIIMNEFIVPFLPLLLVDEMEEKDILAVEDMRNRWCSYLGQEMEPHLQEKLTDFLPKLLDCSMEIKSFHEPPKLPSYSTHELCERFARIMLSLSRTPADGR
Description: Ubiquitin-Rhodamine 110 Assay for USP25 Activity, Example A-2. Format: biochemical. Conditions: Ubiquitin-Rhodamine 110 assay, Example A-2; read-out: USP25 A-2 IC50 range. In short, it runs like this:
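Fluorescence (ex 485, em 535 nm) of cleaved ubiquitin-rhodamine 110 (25 nM, below Km) gave IC50 via 4-parameter logistic fit. Reaction: 45 min, room temperature, citric acid stop, after 30 min compound preincubation with 75 pM USP25-His6 in 20 mM Tris pH 8.0, 3 mM BME, 0.03% BGG, 0.01% Triton X-100; top dose 25 μM.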
Broadly, the IC50 is the midpoint of a concentration-inhibition curve. As for `CO[C@H]1CN(c2cc(F)c3c(c2C#N)OC[C@H](NC(=O)c2sc4nc(C)ccc4c2N)C3)C[C@@H]1N` [Example 175, 3-amino-N-[(3R)-7-[(3S,4S)-3-amino-4-methoxypyrrolidin-1-yl]-8-cyano-5-fluoro-3,4-dihydro-2H-1-benzopyran-3-yl]-6-methylthieno[2,3-b]pyridine-2-carboxamide], the IC50 is greater than 2000 nM.
The figure for `Cc1ccc2c(N)c(C(=O)N[C@H]3COc4cc(N5CC6CCC(C5)N6)c(F)cc4C3)sc2n1` [Example 104, 3-amino-N-[(3R)-7-{3,8-diazabicyclo[3.2.1]octan-3-yl]-6-fluoro-3,4-dihydro-2H-1-benzopyran-3-yl]-6-methylthieno[2,3-b]pyridine-2-carboxamide] is 1 to 50 nM; for `COc1nc2sc(C(=O)N[C@H]3CCc4cc(N5C[C@H](OC)[C@@H](N)C5)ccc4C3)c(N)c2cc1F` [Example 135, 3-amino-N-[(2S)-6-[(3S,4S)-3-amino-4-methoxypyrrolidin-1-yl]-1,2,3,4-tetrahydronaphthalen-2-yl]-5-fluoro-6-methoxythieno[2,3-b]pyridine-2-carboxamide] it is greater than 2000 nM; for `Cc1ccc2c(N)c(C(=O)N[C@H]3COc4cc(N5CC6CNCC(C5)O6)c(F)cc4C3)sc2n1` [Example 106, 3-amino-N-[(3R)-6-fluoro-7-{9-oxa-3,7-diazabicyclo[3.3.1]nonan-3-yl}-3,4-dihydro-2H-1-benzopyran-3-yl]-6-methylthieno[2,3-b]pyridine-2-carboxamide] it is 50 to 200 nM.
For `Cc1ccc2c(N)c(C(=O)N[C@H]3COc4cc([C@H]5C[C@H](N)C5)ccc4C3)sc2n1` [Example 124, 3-amino-6-methyl-N-[(3R)-7-[(1r,3r)-3-aminocyclobutyl]-3,4-dihydro-2H-1-benzopyran-3-yl]thieno[2,3-b]pyridine-2-carboxamide], the IC50 was 200 to 2000 nM.
With `CO[C@H]1CCN(c2ccc3c(c2)OC[C@H](NC(=O)c2sc4nc(C)ccc4c2N)C3)C[C@@H]1N` [Example 119, 3-amino-N-[(3R)-7-[(3S,4S)-3-amino-4-methoxypiperidin-1-yl}-3,4-dihydro-2H-1-benzopyran-3-yl]-6-methylthieno[2,3-b]pyridine-2-carboxamide] the figure was 200 to 2000 nM.
Regarding `CCn1ccc2cc(C(=O)N[C@H]3CCc4cc(N5C[C@H](OC)[C@@H](N)C5)cc(F)c4C3)nnc21` [Example 138, N-[(2S)-6-[(3S,4S)-3-amino-4-methoxypyrrolidin-1-yl]-8-fluoro-1,2,3,4-tetrahydronaphthalen-2-yl]-7-ethyl-7H-pyrrolo[2,3-c]pyridazine-3-carboxamide], the IC50 is greater than 2000 nM.
With `Cc1ccc2c(N)c(C(=O)N[C@H]3COc4cc(N5C[C@@H](N)[C@@H](C(F)F)C5)ccc4C3)sc2n1` [Example 168, 3-amino-N-[(3R)-7-[(3S,4S)-3-amino-4-(difluoromethyl)pyrrolidin-1-yl]-3,4-dihydro-2H-1-benzopyran-3-yl]-6-methylthieno[2,3-b]pyridine-2-carboxamide] the figure was 200 to 2000 nM.
The figure for `Cc1ccc2c(N)c(C(=O)N[C@H]3COc4c(C#N)c(N5CC6CCC(C5)N6)cc(F)c4C3)sc2n1` [Example 95, 3-amino-N-[(3R)-8-cyano-7-{3,8-diazabicyclo[3.2.1]octan-3-yl}-5-fluoro-3,4-dihydro-2H-1-benzopyran-3-yl]-6-methylthieno[2,3-b]pyridine-2-carboxamide] is 200 to 2000 nM; for `CO[C@H]1CN(c2ccc3c(c2)CC[C@H](NC(=O)c2sc4nc(C)sc4c2N)C3)C[C@@H]1N` [Example 133, 6-amino-N-[(2S)-6-[(3S,4S)-3-amino-4-methoxypyrrolidin-1-yl]-1,2,3,4-tetrahydronaphthalen-2-yl]-2-methylthieno[2,3-d][1,3]thiazole-5-carboxamide] it is greater than 2000 nM.
With `Cc1ccc2c(N)c(C(=O)N[C@H]3COc4cc(N5CC[C@@H]6CNC[C@@H]65)ccc4C3)sc2n1` [Example 165, N-[(3R)-7-[(3aR,6aR)-octahydropyrrolo[2,3-c]pyrrol-1-yl]-3,4-dihydro-2H-1-benzopyran-3-yl]-3-amino-6-methylthieno[2,3-b]pyridine-2-carboxamide] the figure was 50 to 200 nM; with `Cc1ccc2c(N)c(C(=O)N[C@H]3COc4cc(N5CC6CCC(C5)N6)c(C#N)c(F)c4C3)sc2n1` [Example 126, 3-amino-N-[(3R)-6-cyano-7-{3,8-diazabicyclo[3.2.1]octan-3-yl}-5-fluoro-3,4-dihydro-2H-1-benzopyran-3-yl]-6-methylthieno[2,3-b]pyridine-2-carboxamide], 1 to 50 nM.
As to `Cc1ccc2c(N)c(C(=O)N[C@H]3COc4c(F)c(N5CC6CCC(C5)N6)cc(F)c4C3)oc2n1` [Example 172, 3-amino-N-[(3R)-7-{3,8-diazabicyclo[3.2.1]octan-3-yl}-5,8-difluoro-3,4-dihydro-2H-1-benzopyran-3-yl]-6-methylfuro[2,3-b]pyridine-2-carboxamide], the IC50 is greater than 2000 nM.
The figure for `Cc1ccc2c(N)c(C(=O)N[C@H]3COc4cc(N5C[C@H](OC6CCC6)[C@@H](N)C5)ccc4C3)sc2n1` [Example 141, 3-amino-N-[(3R)-7-[(3S,4S)-3-amino-4-cyclobutoxypyrrolidin-1-yl]-3,4-dihydro-2H-1-benzopyran-3-yl]-6-methylthieno[2,3-b]pyridine-2-carboxamide] is 50 to 200 nM; for `Cc1ccc2c(N)c(C(=O)N[C@H]3CCc4cc(N5CC6CNCC(C5)O6)c(F)cc4C3)sc2n1` [Example 101, 3-amino-N-[(2S)-7-fluoro-6-{9-oxa-3,7-diazabicyclo[3.3.1]nonan-3-yl}-1,2,3,4-tetrahydronaphthalen-2-yl]-6-methylthieno[2,3-b]pyridine-2-carboxamide] it is 200 to 2000 nM; for `CCO[C@H]1CN(c2ccc3c(n2)CC[C@H](NC(=O)c2sc4nc(C)ccc4c2N)C3)C[C@@H]1N` [Example 142, 3-amino-N-[(6S)-2-[(3S,4S)-3-amino-4-ethoxypyrrolidin-1-yl]-5,6,7,8-tetrahydroquinolin-6-yl]-6-methylthieno[2,3-b]pyridine-2-carboxamide] it is greater than 2000 nM.
The figure for `Cc1ccc2c(N)c(C(=O)N[C@H]3COc4c(C#N)c(N5CC6CNCC(C5)O6)cc(F)c4C3)sc2n1` [Example 96, 3-amino-N-[(3R)-8-cyano-5-fluoro-7-{9-oxa-3,7-diazabicyclo[3.3.1]nonan-3-yl}-3,4-dihydro-2H-1-benzopyran-3-yl]-6-methylthieno[2,3-b]pyridine-2-carboxamide] is 50 to 200 nM; for `Cc1ccc2c(N)c(C(=O)N[C@H]3CCc4cc(N5CC6CCC(C5)N6)ccc4C3)oc2n1` [Example 171, 3-amino-N-[(2S)-6-{3,8-diazabicyclo[3.2.1]octan-3-yl]-1,2,3,4-tetrahydronaphthalen-2-yl]-6-methylfuro[2,3-b]pyridine-2-carboxamide] it is greater than 2000 nM; for `CO[C@H]1CN(c2ccc3c(c2)OC[C@H](NC(=O)c2sc4nc(C)ccc4c2N)C3)C[C@H]1N` [Example 122, 3-amino-N-[(3R)-7-[(3R,4S)-3-amino-4-methoxypyrrolidin-1-yl]-3,4-dihydro-2H-1-benzopyran-3-yl]-6-methylthieno[2,3-b]pyridine-2-carboxamide] it is 200 to 2000 nM.
With `Cc1ccc2c(N)c(C(=O)N[C@H]3COc4cc(C5CC6COCC(C5)N6)ccc4C3)sc2n1` (stereo partly drawn) [Example 125, 3-amino-6-methyl-N-[(3R)-7-{3-oxa-9-azabicyclo[3.3.1]nonan-7-yl}-3,4-dihydro-2H-1-benzopyran-3-yl]thieno[2,3-b]pyridine-2-carboxamide] the figure was 50 to 200 nM; with `CCn1ccc2cc(C(=O)N[C@H]3CCc4cc(N5C[C@H](OC)[C@@H](N)C5)ccc4C3)nnc21` [Example 131, N-[(2S)-6-[(3S,4S)-3-amino-4-methoxypyrrolidin-1-yl]-1,2,3,4-tetrahydronaphthalen-2-yl]-7-ethyl-7H-pyrrolo[2,3-c]pyridazine-3-carboxamide], greater than 2000 nM.
As to `Cc1ccc2c(N)c(C(=O)N[C@H]3COc4cc(N5CC[C@H]6CNC[C@H]65)ccc4C3)sc2n1` [Example 166, N-[(3R)-7-[(3aS,6aS)-octahydropyrrolo[2,3-c]pyrrol-1-yl]-3,4-dihydro-2H-1-benzopyran-3-yl]-3-amino-6-methylthieno[2,3-b]pyridine-2-carboxamide], the IC50 lay within 50 to 200 nM.

The record behind these values is US11524966B1 (Valo Early Discovery, Inc., priority 2017, dated 2022).
